# Reference: PubChem BioAssay (NCI)
#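 Compound exposure: 48 hours, 5 concentrations, 96-well plates. GI50: concentration for 50% inhibition of growth. Definition used: TGI = concentration required for complete inhibition of growth.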
# Tests used:
# Assay in all cases: NCI-60 cell line screen, 48 h
# [1] = system: HCT-116 colon
# [2] = system: SF-295 CNS
# [3] = system: MOLT-4 leukemia
# [4] = system: SK-OV-3 ovarian
# [5] = system: CCRF-CEM leukemia
# [6] = system: TK-10 renal
# [7] = system: OVCAR-3 ovarian
# [8] = system: HCC-2998 colon
# [9] = system: HS 578T breast
# [10] = system: UACC-257 melanoma
# [11] = system: M14 melanoma
# [12] = system: PC-3 prostate
# [13] = system: SF-268 CNS
# [14] = system: K-562 leukemia
# [15] = system: BT-549 breast
# [16] = system: 786-0 renal
# [17] = system: ACHN renal
# [18] = system: UO-31 renal
# [19] = system: SNB-75 CNS
# [20] = system: DU-145 prostate
# [21] = system: HCT-15 colon
# [22] = system: HOP-92 NSCLC
# [23] = system: SK-MEL-2 melanoma
# [24] = system: MCF7 breast
# [25] = system: OVCAR-5 ovarian
# [26] = system: LOX IMVI melanoma
# [27] = system: NCI-H460 lung
# [28] = system: IGROV1 ovarian
# [29] = system: MALME-3M melanoma
# [30] = system: SK-MEL-5 melanoma
# [31] = system: A498 renal
# [32] = system: NCI-H226 lung
# [33] = system: COLO 205 colon
# [34] = system: SN12C renal
# [35] = system: SF-539 CNS
# [36] = system: OVCAR-8 ovarian
# [37] = system: KM12 colon
# [38] = system: NCI-H522 lung
# [39] = system: RXF 393 renal
# [40] = system: UACC-62 melanoma
# [41] = system: SW-620 colon
# [42] = system: U251 CNS
# [43] = system: MDA-MB-231 breast
# [44] = system: A549 NSCLC
# [45] = system: OVCAR-4 ovarian
# [46] = system: MDA-MB-468 breast
# [47] = system: RPMI-8226 leukemia
# [48] = system: HT29 colon
# [49] = system: SNB-19 CNS
# [50] = system: NCI-H23 lung
# [51] = system: HOP-62 NSCLC
# [52] = system: EKVX NSCLC
# [53] = system: SK-MEL-28 melanoma
# [54] = system: NCI/ADR-RES ovarian
# [55] = system: T-47D breast
# [56] = system: HL-60(TB) leukemia
# [57] = system: SR leukemia
# [58] = system: CAKI-1 renal
# [59] = system: MDA-MB-435
smiles,measurement,setting,value
O=C1CCC(N2Cc3c(C#CCCCNC(=O)c4ccc(NC(=O)[C@@H]5NC6(CCCCC6)[C@@]6(C(=O)Nc7cc(Cl)ccc76)[C@H]5c5cccc(Cl)c5F)cc4)cccc3C2=O)C(=O)N1 (some centres undefined),GI50,[1],2.45 µM
same,TGI,[1],> 100 µM
same,GI50,[2],10.8 µM
same,TGI,[2],> 100 µM
same,TGI,[3],1.43 µM
same,GI50,[4],> 95.6 µM
same,TGI,[4],> 100 µM
same,GI50,[5],11.6 µM
same,TGI,[5],> 100 µM
same,GI50,[6],> 75.9 µM
same,TGI,[6],> 100 µM
same,GI50,[7],15.8 µM
same,TGI,[7],> 100 µM
same,GI50,[8],9.57 µM
same,TGI,[8],> 100 µM
same,GI50,[9],4.3 µM
same,TGI,[9],> 100 µM
same,GI50,[10],9.03 µM
same,TGI,[10],> 100 µM
same,GI50,[11],75 µM
same,TGI,[11],> 100 µM
same,GI50,[12],7.52 µM
same,TGI,[12],> 100 µM
same,GI50,[13],26 µM
same,TGI,[13],> 100 µM
same,GI50,[14],65 µM
same,TGI,[14],> 100 µM
same,GI50,[15],13.1 µM
same,TGI,[15],> 100 µM
same,GI50,[16],35.2 µM
same,TGI,[16],> 100 µM
same,GI50,[17],3.86 µM
same,TGI,[17],> 100 µM
same,GI50,[18],3.04 µM
same,TGI,[18],> 100 µM
same,GI50,[19],2.5 µM
same,TGI,[19],> 72.1 µM
same,GI50,[20],> 100 µM
same,TGI,[20],> 100 µM
same,GI50,[21],7.72 µM
same,TGI,[21],> 100 µM
same,GI50,[22],5.27 µM
same,TGI,[22],> 100 µM
same,GI50,[23],> 100 µM
same,TGI,[23],> 100 µM
same,TGI,[24],> 49.8 µM
same,GI50,[25],> 53.2 µM
same,TGI,[25],> 100 µM
same,GI50,[26],0.953 µM
same,TGI,[26],> 100 µM
same,GI50,[27],2.09 µM
same,TGI,[27],> 100 µM
same,GI50,[28],1.76 µM
same,TGI,[28],> 44 µM
same,GI50,[29],0.159 µM
same,TGI,[29],20 µM
same,GI50,[30],2.33 µM
same,TGI,[30],> 40.2 µM
same,GI50,[31],25.7 µM
same,TGI,[31],> 100 µM
same,GI50,[32],0.2 µM
same,TGI,[32],> 74.5 µM
same,GI50,[33],72 µM
same,TGI,[33],> 100 µM
same,GI50,[34],> 78.2 µM
same,TGI,[34],> 100 µM
same,GI50,[35],12.9 µM
same,TGI,[35],> 100 µM
same,GI50,[36],> 100 µM
same,TGI,[36],> 100 µM
same,GI50,[37],9.18 µM
same,TGI,[37],> 100 µM
same,GI50,[38],> 89.9 µM
same,TGI,[38],> 100 µM
same,GI50,[39],5.81 µM
same,TGI,[39],> 79 µM
same,GI50,[40],0.445 µM
same,TGI,[40],> 100 µM
same,GI50,[41],> 100 µM
same,TGI,[41],> 100 µM
same,GI50,[42],9.5 µM
same,TGI,[42],> 100 µM
same,GI50,[43],15.4 µM
same,TGI,[43],> 100 µM
same,GI50,[44],1.04 µM
same,TGI,[44],> 100 µM
same,GI50,[45],7.28 µM
same,TGI,[45],97.5 µM
same,GI50,[46],4.38 µM
same,TGI,[46],> 35.7 µM
same,GI50,[47],4.16 µM
same,TGI,[47],> 100 µM
same,GI50,[48],25.2 µM
same,TGI,[48],> 100 µM
same,GI50,[49],> 50.1 µM
same,TGI,[49],> 100 µM
same,GI50,[50],> 88 µM
same,TGI,[50],> 100 µM
same,GI50,[51],> 100 µM
same,TGI,[51],> 100 µM
same,GI50,[52],8.32 µM
same,TGI,[52],> 100 µM
same,GI50,[53],96.8 µM
same,TGI,[53],> 100 µM
same,GI50,[54],> 100 µM
same,TGI,[54],> 100 µM
same,GI50,[55],6.68 µM
same,TGI,[55],> 100 µM
same,GI50,[56],6.77 µM
same,TGI,[56],> 100 µM
same,GI50,[57],0.25 µM
same,TGI,[57],3.11 µM
same,GI50,[58],1.2 µM
same,TGI,[58],> 100 µM
same,GI50,[59],31.8 µM
same,TGI,[59],> 100 µM
COc1ccc2[nH]c(=O)c(CSc3ccccc3Nc3nccc(-c4ccc(C(F)(F)F)cc4)n3)cc2c1,GI50,[1],3.14 µM
same,TGI,[1],10.6 µM
same,GI50,[2],10.1 µM
same,TGI,[2],21.6 µM
same,GI50,[3],3.59 µM
same,TGI,[3],15.7 µM
same,GI50,[4],15.8 µM
same,TGI,[4],29.3 µM
same,GI50,[5],3.84 µM
same,TGI,[5],18.5 µM
same,GI50,[6],17.4 µM
same,TGI,[6],31.2 µM
same,GI50,[7],3.48 µM
same,TGI,[7],15.2 µM
same,GI50,[8],5.27 µM
same,TGI,[8],18.1 µM
same,GI50,[9],13.2 µM
same,TGI,[9],36.5 µM
same,GI50,[10],13 µM
same,TGI,[10],25.7 µM
same,GI50,[11],11.2 µM
same,TGI,[11],23.2 µM
same,GI50,[12],3.2 µM
same,TGI,[12],12.6 µM
same,GI50,[13],5.15 µM
same,TGI,[13],18.2 µM
same,GI50,[14],4.46 µM
same,TGI,[14],21.6 µM
same,GI50,[15],6.57 µM
same,TGI,[15],19.7 µM
same,GI50,[16],6.43 µM
same,TGI,[16],19.1 µM
same,GI50,[17],5 µM
same,TGI,[17],16.9 µM
same,GI50,[18],4.5 µM
same,TGI,[18],18.1 µM
same,GI50,[19],12.5 µM
same,TGI,[19],25.5 µM
same,GI50,[20],8.89 µM
same,TGI,[20],21 µM
same,GI50,[21],4.69 µM
same,TGI,[21],16.7 µM
same,GI50,[22],2.2 µM
same,TGI,[22],17.3 µM
same,GI50,[23],10.8 µM
same,TGI,[23],22.7 µM
same,GI50,[24],2.97 µM
same,TGI,[24],11 µM
same,GI50,[25],13 µM
same,TGI,[25],25.7 µM
same,GI50,[26],3.06 µM
same,TGI,[26],11.5 µM
same,GI50,[27],4.05 µM
same,TGI,[27],14.5 µM
same,GI50,[28],9.67 µM
same,TGI,[28],21.4 µM
same,GI50,[29],12 µM
same,TGI,[29],24.3 µM
same,GI50,[30],10.5 µM
same,TGI,[30],22.2 µM
same,GI50,[31],13.8 µM
same,TGI,[31],26.7 µM
same,GI50,[32],4.76 µM
same,TGI,[32],18.8 µM
same,GI50,[33],11.1 µM
same,TGI,[33],23.1 µM
same,GI50,[34],3.74 µM
same,TGI,[34],13.1 µM
same,GI50,[35],10.3 µM
same,TGI,[35],21.9 µM
same,GI50,[36],9.59 µM
same,TGI,[36],21.4 µM
same,GI50,[37],5.6 µM
same,TGI,[37],17.9 µM
same,GI50,[38],3.82 µM
same,TGI,[38],16.2 µM
same,GI50,[39],3.03 µM
same,TGI,[39],8.62 µM
same,GI50,[40],11.8 µM
same,TGI,[40],24 µM
same,GI50,[41],5.43 µM
same,TGI,[41],18.2 µM
same,GI50,[42],10.5 µM
same,TGI,[42],22.3 µM
same,GI50,[43],11.1 µM
same,TGI,[43],23.1 µM
same,GI50,[44],5.28 µM
same,TGI,[44],18.5 µM
same,GI50,[45],3.42 µM
same,TGI,[45],13.7 µM
same,GI50,[46],2.65 µM
same,TGI,[46],10.2 µM
same,GI50,[47],3.27 µM
same,TGI,[47],15.4 µM
same,GI50,[48],3.64 µM
same,TGI,[48],12.7 µM
same,GI50,[49],13.5 µM
same,TGI,[49],26.3 µM
same,GI50,[50],6.28 µM
same,TGI,[50],19.3 µM
same,GI50,[51],15.4 µM
same,TGI,[51],28.7 µM
same,GI50,[52],10.3 µM
same,TGI,[52],22.4 µM
same,GI50,[53],11.8 µM
same,TGI,[53],24.1 µM
same,GI50,[54],4.32 µM
same,TGI,[54],17.5 µM
same,GI50,[55],5.66 µM
same,TGI,[55],20.3 µM
same,GI50,[56],8.6 µM
same,TGI,[56],28.2 µM
same,GI50,[57],2.91 µM
same,TGI,[57],11.1 µM
same,GI50,[58],9.2 µM
same,TGI,[58],21.2 µM
same,GI50,[59],8.95 µM
same,TGI,[59],21.1 µM
